Legend:
Format in all cases: cell-based
[1] = tested on: THJ29T, THJ16T and KTC2 cells; assay: Oleic acid rescue of proliferation in ATC cells; conditions: EC50 dose for 72H with 5 μM oleic acid
Method: Cells were seeded at 5,000 cells/well in clear-bottom 96-well plates in triplicate in Maintenance Media. Drug treatment was applied at a concentration of 1:1000 in reduced serum (3%) Maintenance Media. After 72 hours, cells were washed with PBS, and stored at −80° C. prior to analysis using CyQuant® Proliferation Analysis Kit (Invitrogen) as per manufacturers' protocol for relative fluorescence units. Alternatively, cells were plated 2×10^5/well in 12-well plates (Midwest Scientific) in triplicate prior to drug treatment. After 120 hour treatment, cell number was established using a Coulter Particle Counter (Beckman). Or, cells were plated (0.5 or 1×10^5/well) in 24-well plates (Midwest Scientific), 3×. After 72 hour treatment, cell number established using Coulter Particle Counter (Beckman). Oleic acid-albumin (Sigma Aldrich) was added to media at 5 μM, and was applied adjuvant to drug treatment. Drug stocks were prepared in DMSO (Sigma) at 1000×. EC50 dosing per cell line was calculated using CalcuSyn® analytical software. […]

ATC cells = assay: Proliferative dose response of thyroid cells; conditions: ATC cells; for proliferation: 72H treatment; for 50% effective concentrations (EC50): proliferation
Method: Cells were seeded at 5,000 cells/well in clear-bottom 96-well plates in triplicate in Maintenance Media. Drug treatment was applied at a concentration of 1:1000 in reduced serum (3%) Maintenance Media. After 72 hours, cells were washed with PBS, and stored at −80° C. prior to analysis using CyQuant® Proliferation Analysis Kit (Invitrogen) as per manufacturers' protocol for relative fluorescence units. Alternatively, cells were plated 2×10^5/well in 12-well plates (Midwest Scientific) in triplicate prior to drug treatment. After 120 hour treatment, cell number was established using a Coulter Particle Counter (Beckman). Or, cells were plated (0.5 or 1×10^5/well) in 24-well plates (Midwest Scientific), 3×. After 72 hour treatment, cell number established using Coulter Particle Counter (Beckman). Oleic acid-albumin (Sigma Aldrich) was added to media at 5 μM, and was applied adjuvant to drug treatment. Drug stocks were prepared in DMSO (Sigma) at 1000×. EC50 dosing per cell line was calculated using CalcuSyn® analytical software.
The efficacy of pharmacologic inhibition of this enzyme on tumor cell proliferation after a 72H treatment was determined, using A939572-a commercially available small molecule SCD1 inhibitor (Xin Z, Zhao H, Serby M D, Liu B, Liu M, Szczepankiewicz B G, Nelson L T, Smith H T, Suhar T S, Janis R S, Cao N, Camp H S, Collins C A, Sham H L, Surowy T K, Liu G. Discovery of piperidine-aryl urea-based stearoyl-CoA desaturase 1 inhibitors. Bioorg Med Chem Lett. 2008; 18(15):4298-302). […] Despite conspicuous SCD1 expression in 4 of the 5 FTC cells tested, no response to A939572 was observed (FIG. 10D).
THJ29T, THJ16T, and KTC2 were treated with carfilzomib (FIG. 12A) or bortezomib for 72H in order to establish EC50 values. […] Anti-proliferative drug synergy was evaluated in THJ29T and THJ16T treated with either A939572 or MF-438 in combination with either bortezomib or carfilzomib for 48H. Synergy was assessed using CalcuSyn analytical software, which determines the combination index (CI) based on the Chou-Talalay method where CI values >1 represent an antagonistic effect and values <1 represent synergy, and lower values signify enhanced synergy (Chou T C, Talalay P. Analysis of Combined Drug Effects—a New Look at a Very Old Problem. Trends in Pharmacological Sciences. 1983; 4(11):450-4).

[2] = tested on: PARP cleavage and CHOP expression in THJ29T and THJ16T; assay: Western blot for PARP cleavage and CHOP expression, combinatorial therapy; conditions: EC50 doses, 48H
Method: Protein extraction and western blot analysis was performed as previously described (Copland J A, Marlow L A, Kurakata S, et al. Novel high-affinity PPARgamma agonist alone and in combination with paclitaxel inhibits human anaplastic thyroid carcinoma tumor growth via p21WAF1/CIP1. Oncogene. Apr 13 2006; 25(16):2304-2317). Primary antibodies included SCD1 (Sigma-Aldrich, #HPA012107), BiP (Cell Signaling, #3183), CHOP (Cell Signaling, #2895), sXBP1(Santa Cruz Biotechnology, #sc-7160), PARP(Cell Signaling, #9542), and β-actin (Sigma-Aldrich, #A5441).
THJ29T and THJ16T treated for 48H with EC50 doses of either A939572 or MF-438 in combination with either carfilzomib or bortezomib were probed for PARP cleavage and CHOP expression, both markers indicative of apoptosis (FIGS. 14A-B, 15A-B). […] Cell death was additionally examined via flow cytometry using propidium iodide staining. THJ29T and THJ16T were treated for 48H with EC50 doses of either A939572 or MF-438 in combination with either carfilzomib or bortezomib prior to staining and analysis.

SMILES	rescue of proliferation with OA [1]	proliferation (ATC cells)	50% effective concentrations (EC50) (ATC cells)	PARP cleavage as compared to DMSO control [2]
CNC(=O)c1cccc(NC(=O)N2CCC(Oc3ccccc3Cl)CC2)c1 [A939572]	complete rescue of proliferation	dose-dependent decrease in proliferation	low nanomolar dose range	significant PARP cleavage
Cc1nnc(-c2ccc(N3CCC(Oc4ccccc4C(F)(F)F)CC3)nn2)s1 [MF-438, 2-methyl-5-(6-(4-(2-(trifluoromethyl)phenoxy)piperidin-1-yl)pyridazin-3-yl)-1,3,4-thiadiazole]	complete rescue of proliferation	dose-dependent decrease in ATC proliferation	low nanomolar dose range	significant PARP cleavage
